Laboratory results reported in patent US9708336B2, “Metallo-beta-lactamase inhibitors” (priority 2014, dated 2017).
Counter-ions that a name gives are not always drawn. Like-named read-outs stand apart in the source and are kept apart here.

Assays:
NDM-1 = NDM-1 (Klebsiella pneumoniae, UniProt C7C422); experiment: biochemical; format: biochemical; settings: read-out: NDM-1 IC50
[1] = tested on: Serratia marcescens expressing IMP-1 (CL5741); experiment: Antibiotic potentiation activity: synergistic concentration (MITC95) with imipenem, OD600 growth; format: cell-based; settings: for Serratia marcescens expressing IMP-1 (CL5741) MITC95: concentration giving 95% inhibition of bacterial growth; for Serratia marcescens MITC95: Serratia marcescens expressing IMP-1 (CL5741), 95% growth inhibition
How it was run: (§1)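 Steps: colonies grown overnight at 35 °C; resuspended in saline to OD600 0.11–0.15 by strain; diluted 1:100 into 1.1× CAMHB; imipenem then compound added (antibiotic 4 μg/ml in assay); incubated 35 °C for 22–24 h; absorbance measured.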

[2] = tested on: Escherichia coli expressing NDM-1 (CLB30016); experiment: as above; format: cell-based; settings: for Escherichia coli expressing NDM-1 (CLB 30016) MITC95: concentration giving 95% inhibition of bacterial growth; for Escherichia coli MITC95: Escherichia coli expressing NDM-1 (CLB30016), 95% growth inhibition
How it was run: as §1

[3] = tested on: Klebsiella pneumoniae expressing VIM-1 (IHMA599644); experiment: as above; format: cell-based; settings: for Klebsiella pneumoniae expressing VIM-1 (IHMA 599644) MITC95: concentration giving 95% inhibition of bacterial growth; for Klebsiella pneumoniae MITC95: Klebsiella pneumoniae expressing VIM-1 (IHMA599644), 95% growth inhibition
How it was run: as §1

[4] = tested on: Escherichia coli expressing NDM-1 (CLB30005); experiment: as above; format: cell-based; settings: for Escherichia coli expressing NDM-1 (CLB 30005) MITC95: concentration giving 95% inhibition of bacterial growth; for Escherichia coli MITC95: Escherichia coli expressing NDM-1 (CLB30005), 95% growth inhibition
How it was run: as §1

VIM-1 = VIM-1 (Pseudomonas aeruginosa (strain ATCC 15692 / DSM 22644 / CIP 104116 / JCM 14847 / LMG 12228 / 1C / PRS 101 / PAO1), UniProt A0A0F7KYQ8); experiment: Enzyme activity: determination of IC50, fluorescence assay with CCF2-FA substrate (VIM-1); format: biochemical
IMP-1 = IMP-1 (Serratia marcescens, UniProt P52699); experiment: biochemical; format: biochemical; settings: read-out: IMP-1 IC50
[5] = fluorescence assay with CCF2-FA substrate
[6] = fluorescence assay with CCF2-FA substrate, read-out: VIM-1 IC50
[7] = NDM-1 enzyme, CCF2-FA fluorescence assay
[8] = VIM-1 enzyme, CCF2-FA fluorescence assay, read-out: VIM-1 IC50
[9] = IMP-1 enzyme, CCF2-FA fluorescence assay

IMP-1, sequence (P52699 whole entry, looked up): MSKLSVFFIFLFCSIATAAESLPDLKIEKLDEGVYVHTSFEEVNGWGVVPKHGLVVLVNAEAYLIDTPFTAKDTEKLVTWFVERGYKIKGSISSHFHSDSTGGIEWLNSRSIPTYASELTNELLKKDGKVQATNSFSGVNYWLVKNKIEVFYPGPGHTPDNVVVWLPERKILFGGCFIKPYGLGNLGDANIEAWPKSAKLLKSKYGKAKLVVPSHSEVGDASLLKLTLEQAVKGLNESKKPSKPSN
NDM-1, sequence (C7C422 whole entry, looked up, species assumed): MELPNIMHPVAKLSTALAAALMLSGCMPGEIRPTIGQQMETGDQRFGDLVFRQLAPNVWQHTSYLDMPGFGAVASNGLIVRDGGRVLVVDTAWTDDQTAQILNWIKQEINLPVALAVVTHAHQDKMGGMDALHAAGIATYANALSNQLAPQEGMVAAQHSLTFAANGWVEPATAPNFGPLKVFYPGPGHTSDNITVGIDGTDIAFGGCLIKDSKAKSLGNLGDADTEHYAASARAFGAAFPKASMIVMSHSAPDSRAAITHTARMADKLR

## Nc1ccc(-c2ccnc(S(N)(=O)=O)c2-c2nn[nH]n2)cn1 [Example 215, 6-amino-3′-(2H-tetrazol-5-yl)-[3,4′-bipyridine]-2′-sulfonamide]
NDM-1; [5]
  IC50: 90.9 nM
[1]
  Serratia marcescens expressing IMP-1 (CL5741) MITC95: 18.75 µM
[2]
  Escherichia coli expressing NDM-1 (CLB 30016) MITC95: 0.25 µM
[3]
  Klebsiella pneumoniae expressing VIM-1 (IHMA 599644) MITC95: 12.5 µM
[4]
  Escherichia coli expressing NDM-1 (CLB 30005) MITC95: 0.1953 µM
VIM-1; [6]
  IC50: 494 nM
IMP-1; [5]
  IC50: 1860 nM

## NS(=O)(=O)c1cccc(-c2cnc3ccoc3c2)c1-c1nn[nH]n1 [Example 311, 3-(furo[3,2-b]pyridin-6-yl)-2-(2H-tetrazol-5-yl)benzenesulfonamide]
NDM-1; [7]
  IC50: 1.11 nM
[1]
  Serratia marcescens MITC95: 3.906 µM
[2]
  Escherichia coli MITC95: 0.7813 µM
[3]
  Klebsiella pneumoniae MITC95: 4.688 µM
[4]
  Escherichia coli MITC95: 0.1953 µM
VIM-1; [8]
  IC50: 8.16 nM
IMP-1; [9]
  IC50: 129 nM

## Nc1ccc(-c2cccc(S(N)(=O)=O)c2-c2nnn[nH]2)cn1 [Example 298, 3-(6-Aminopyridin-3-yl)-2-(1H-tetrazol-5-yl)benzene sulfonamide, TFA salt]
NDM-1; [7]
  IC50: 71.7 nM
[1]
  Serratia marcescens MITC95: 8.333 µM
[2]
  Escherichia coli MITC95: 0.04688 µM
[3]
  Klebsiella pneumoniae MITC95: 12.5 µM
[4]
  Escherichia coli MITC95: 0.1953 µM
VIM-1; [8]
  IC50: 251 nM
IMP-1; [9]
  IC50: 776 nM

## Cc1ccncc1-c1cccc(S(N)(=O)=O)c1-c1nn[nH]n1 [Example 317, 3-(4-methylpyridin-3-yl)-2-(2H-tetrazol-5-yl)benzenesulfonamide]
NDM-1; [7]
  IC50: 5.38 nM
[1]
  Serratia marcescens MITC95: 9.375 µM
[2]
  Escherichia coli MITC95: 0.1875 µM
[3]
  Klebsiella pneumoniae MITC95: 18.75 µM
[4]
  Escherichia coli MITC95: 0.125 µM
VIM-1; VIM-1 IC50, VIM-1 enzyme, CCF2-FA fluorescence assay
  IC50: 46 nM
IMP-1; [9]
  IC50: 360 nM

## NS(=O)(=O)c1cccc(-c2ccc(C3CCNC3)cc2)c1-c1nnn[nH]1 (stereo not drawn) [Example 180, 4′-(pyrrolidin-3-yl)-2-(1H-tetrazol-5-yl)-[1,1′-biphenyl]-3-sulfonamide]
NDM-1; [5]
  IC50: 9.91 nM
[1]
  Serratia marcescens expressing IMP-1 (CL5741) MITC95: 3.125 µM
[2]
  Escherichia coli expressing NDM-1 (CLB 30016) MITC95: 0.5 µM
[3]
  Klebsiella pneumoniae expressing VIM-1 (IHMA 599644) MITC95: 4.688 µM
[4]
  Escherichia coli expressing NDM-1 (CLB 30005) MITC95: 0.3906 µM
VIM-1; [6]
  IC50: 22.4 nM
IMP-1; [5]
  IC50: 113 nM

## NS(=O)(=O)c1cccc(-c2cnn3ccccc23)c1-c1nn[nH]n1 [Example 98, 3-pyrazolo[1,5-a]pyridin-3-yl-2-(2H-tetrazol-5-yl)benzenesulfonamide]
NDM-1; [5]
  IC50: 2.7 nM
[1]
  Serratia marcescens expressing IMP-1 (CL5741) MITC95: 7.813 µM
[2]
  Escherichia coli expressing NDM-1 (CLB 30016) MITC95: 0.7813 µM
[3]
  Klebsiella pneumoniae expressing VIM-1 (IHMA 599644) MITC95: 18.75 µM
[4]
  Escherichia coli expressing NDM-1 (CLB 30005) MITC95: 0.9766 µM
VIM-1; VIM-1 IC50, fluorescence assay with CCF2-FA substrate
  IC50: 29.4 nM
IMP-1; [5]
  IC50: 320 nM
